The values below come from PubChem BioAssay (NCI).

Where “and” joins values, the source holds several entries; their conditions need not be identical. Identical values can stand only once.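 Briefly, cells in 96-well plates were exposed to five compound concentrations for 48 h, and endpoints were estimated by linear interpolation. At the GI50, growth is halved. The concentration for full growth arrest is given as TGI.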

The test system of this assay is MDA-MB-468 breast. Put plainly: NCI tumour cell line growth inhibition, 48 h.

Turning to `Cc1ccc(NC(=O)c2ccnc(C(F)(F)F)c2)cc1-c1cc(OCCO)nc(N2CCOCC2)c1`, the GI50 was 1.82 µM and the TGI stood at 7.09 µM.

As to `Cc1cn(-c2cc(NC(=O)c3cncc(C#Cc4cnc5ccc(OCCCS(C)(=O)=O)nn45)c3)cc(C(F)(F)F)c2)cn1`, the GI50 is 2.2 µM and the TGI was 7.33 µM.

As for `S=C(Nc1ccccc1)c1ccccn1`, the GI50 was 45.3 µM and the TGI was more than 100 µM.

In the case of `COc1ccc(C2CC(=O)Nc3c2c(C)nn3-c2nc3ccccc3[nH]2)cc1` (stereo unspecified), the GI50 is 2.86 µM and the TGI is 12.6 µM.

With `OCCNc1nc(NCCO)nc(Nc2ccc(C3=NN(c4cc(Cl)cc(Cl)c4)C(c4ccc(Cl)cc4)C3)cc2)n1` (stereo unspecified), the GI50 is 1.92 µM and the TGI is 3.77 µM.

For `FC(F)(F)c1ccc2c(c1)N(CCCN1CCN(C3CC3)CC1)c1ccccc1S2`, the GI50 was 3.84 µM and the TGI worked out at 15.1 µM.

As for `CC1OC(O[C@@H]2C(O)C(CO)OC(O[C@H]3COC(O[C@H]4CC[C@]5(C)[C@H]6CC[C@]78OC[C@@]9(CC[C@](C)(C=O)C[C@H]97)[C@H](O)C[C@@]8(C)[C@]6(C)CC[C@H]5C4(C)C)[C@@H](OC4OC(CO)[C@@H](O)[C@@H](O)[C@@H]4O)[C@@H]3O)[C@H]2OC2OC[C@@H](O)[C@@H](O)[C@@H]2O)[C@@H](O)[C@@H](O)[C@H]1O` (stereo partly specified), the GI50 was 1.59 µM and the TGI amounted to 3.28 µM.

`O=c1cc/c(=N\Nc2ccccc2)c(=O)/c1=N/Nc1ccccc1`: the GI50 was more than 50 µM and the TGI is more than 50 µM.

In the case of `CCCCCCN1C(=O)/C(=c2\sc3n(c2=O)C2C(NN=3)N(CC)C(=O)N2CC)c2ccccc21` (stereo unspecified), the GI50 was 1.41 µM and the TGI was more than 50 µM.

`CCCCCC(=O)N1c2ccccc2NC2=C(C(=O)CC(c3ccc(OC)c(OC)c3)C2)C1c1ccc(C(F)(F)F)cc1` (stereo unspecified): the GI50 is more than 100 µM and the TGI is more than 100 µM.

Regarding `O=C(Oc1ccccc1)c1cc(O)c(O)c(O)c1`, the GI50 was 12.6 µM and the TGI is 67.5 µM.

In the case of `COc1ccc2c(c1)[nH]c(=O)c1c3cccnc3cn21`, the GI50 was 0.133 µM and the TGI was found to be 2.33 µM.

For the compound `O=[N+]([O-])c1cccc(-c2nc3sccn3c2-c2ccnc(NCCCNS(=O)(=O)c3ccc(F)cc3)n2)c1`, the GI50 is 1.5 µM and the TGI stood at 7.11 µM.

Take `N#C/C(=C\c1cn(-c2ccccc2)c2ccccc12)C(=O)O`: the GI50 is 50.7 µM and the TGI is more than 100 µM.

Regarding `CCCCCCCCCCCCCCCCCCOc1ccccc1CC(=O)OCC[N+](C)(C)C`, the GI50 was 1.37 µM and the TGI is 3.05 µM.

Consider `CC(=O)OCC(=O)[C@@]1(O)[C@H](C)C[C@H]2[C@@H]3C=C(C)C4=Cc5c(cnn5-c5ccc(F)cc5)C[C@]4(C)[C@H]3[C@@H](O)C[C@@]21C`, for which the GI50 is 2.01 µM and the TGI was found to be 3.92 µM.

Consider `[N-]=[N+]=Nc1ncc(-c2ccc(C(F)(F)F)cc2)c(NC2CCCCCC2)n1`, for which the GI50 is more than 10 µM and the TGI is more than 10 µM.

As to `CN(C)c1cccc2[nH]c(-c3[nH]ncc3Nc3ccnc(N)n3)nc12`, the GI50 was 0.0145 µM and the TGI turned out to be 0.0422 µM.

As for `CCN(CC)CCC(=O)Nc1cccc2c1C(=O)c1c(c(O)c3ccccc3c1O)C2=O`, the GI50 was more than 100 µM and the TGI was more than 100 µM.

As to `C=C1C(=O)O[C@H]2[C@H]1CC/C(COC(=O)NCCc1ccc(OC)cc1)=C\CC[C@@]1(C)O[C@@H]21`, the GI50 is 1.55 µM and the TGI amounted to 3.85 µM.

In the case of `COc1nccc(-c2c(-c3ccc(F)cc3)ncn2C2CCC(O)CC2)n1` (stereo unspecified), the GI50 is 21.6 µM and the TGI was more than 89.4 µM.

Consider `Cn1cc(-c2cc3ncnc(Nc4ccc(NC(=O)Nc5cc(C(C)(C)C)on5)cc4)c3s2)cn1`, for which the GI50 was 0.92 µM and the TGI amounted to 4.75 µM.

Take `COc1cc(N2CCC(N(C)C)CC2)ccc1Nc1ncc(Cl)c(Nc2ccccc2P(C)(C)=O)n1`: the GI50 is 1.22 µM and 0.897 µM; the TGI is 3.71 µM and 4.49 µM.

Regarding `CC(C)(C)Cn1c(N)nc2ccc(-c3[nH]c(C(C)(C)C)nc3-c3ccc(F)cc3)nc21`, the GI50 was 3.1 µM and the TGI turned out to be 16.8 µM.

As to `Clc1cc(Cl)cc(N2N=C(c3cccc(Nc4ccncc4)c3)CC2c2ccccc2)c1` (stereo unspecified), the GI50 is 1.52 µM and the TGI was found to be 3.01 µM.

As for `CCCCCCn1c(-c2ccc(C(=O)O/N=C(\N)c3ccc(OC)cc3)cc2)nc(-c2ccccc2)c1-c1ccccc1`, the GI50 was 1.75 µM and the TGI came out at 3.51 µM.

Consider `COC(=O)c1c2c(c(C)[n+]([O-])c1C)C(=O)C=C(NCc1ccc(Cl)cc1)C2=O`, for which the GI50 was 0.223 µM and the TGI is 0.76 µM.

For `O=C(Nc1ccccc1Cl)c1cnc2ccc(C3CCNCC3)cn12`, the GI50 is 2.13 µM and the TGI stood at 9.54 µM.

`CNC(=O)c1cc(Oc2ccc3nc(NC(=O)Nc4ccc(Cl)c(Cl)c4)sc3c2)ccn1`: the GI50 is 1.97 µM and the TGI was 5.09 µM.

Turning to `COc1cc(C)cc2c1OC(c1ccccc1)CC2=O` (stereo unspecified), the GI50 is more than 100 µM and the TGI was more than 100 µM.

In the case of `c1ccc(-c2nc(Nc3ccc(-c4nc5ccccc5[nH]4)cc3)nc(N3CCOCC3)n2)cc1`, the GI50 was 2.13 µM and the TGI was found to be 4.39 µM.

Take `Nc1nc(-n2cccn2)nc(-n2cccn2)c1Br`: the GI50 is more than 100 µM and the TGI was more than 100 µM.

`O=C(CNC(=O)c1cccc2ccccc12)Nc1ccccc1Oc1cccc(O)c1`: the GI50 is 3.55 µM and the TGI came to 19.4 µM.

As for `Cn1cnc2c(F)c(Nc3ccc(Br)cc3Cl)c(C(=O)NOCCO)cc21`, the GI50 was > 10 µM and 11.9 µM; the TGI is > 10 µM and 71.1 µM.

Turning to `COc1cc2c3c(n(CCCNC4CCCC4)c(=O)c2cc1OC)-c1cc2c(cc1C3=O)OCO2`, the GI50 was 5.6 µM and the TGI turned out to be 19.6 µM.

`COc1ccc(/C=C/C(=O)c2ccc(Nc3ncnc4ccccc34)cc2)cc1OC`: the GI50 is 2.17 µM and the TGI came to 7.29 µM.

Regarding `COC(=O)Nc1ccc2ccc3c(NC(=O)OC)ccc4ccc1c2c43` (tested in a mixture with another compound), the GI50 is 3.8 µM and the TGI is 19.2 µM.

For `N#Cc1nc(-c2cccc(Br)c2)cc(-c2ccc(Nc3nc(N4CCCCC4)nc(N4CCCCC4)n3)cc2)c1N`, the GI50 is 2.16 µM and the TGI was determined as 5.64 µM.

Take `Cc1cccc2c3c(sc12)C(c1ccc(Cl)cc1)C(C#N)=C(/N=C/c1ccc(Cl)cc1)O3` (stereo unspecified): the GI50 is 0.257 µM and the TGI came out at 2 µM.

Take `O=C(O)C(/C=C/c1ccco1)=N\Nc1nc(-c2ccc(Cl)cc2)cs1`: the GI50 is 10.6 µM and the TGI was more than 50 µM.

With `Cc1sc2ncnc(Sc3nc4ccccc4[nH]3)c2c1C`, the GI50 was 17.7 µM and the TGI amounted to 60.5 µM.

Regarding `C#Cc1cccc(NC(=O)Nc2ccc(NC(=O)CCl)cc2)c1`, the GI50 is 13.3 µM and the TGI worked out at 32.1 µM.

In the case of `CCN(CC)c1ccc(/C=N/NC(=O)c2ccc(Nc3ccnc(C(F)(F)F)c3)cc2)c(O)c1`, the GI50 is 0.227 µM and the TGI was found to be 0.956 µM.
